In paper PMC10425802 (Genes & Diseases, 2023):

How the values were obtained:
Experiment in all cases: mobility shift kinase assay
Type in all cases: biochemical
[1] = target: FGFR1 (Homo sapiens, UniProt P11362)
[2] = target: FGFR3 (Homo sapiens, UniProt P22607)
[3] = target: FGFR2 (Homo sapiens, UniProt P21802)
FGFR2, sequence (P21802 22-821): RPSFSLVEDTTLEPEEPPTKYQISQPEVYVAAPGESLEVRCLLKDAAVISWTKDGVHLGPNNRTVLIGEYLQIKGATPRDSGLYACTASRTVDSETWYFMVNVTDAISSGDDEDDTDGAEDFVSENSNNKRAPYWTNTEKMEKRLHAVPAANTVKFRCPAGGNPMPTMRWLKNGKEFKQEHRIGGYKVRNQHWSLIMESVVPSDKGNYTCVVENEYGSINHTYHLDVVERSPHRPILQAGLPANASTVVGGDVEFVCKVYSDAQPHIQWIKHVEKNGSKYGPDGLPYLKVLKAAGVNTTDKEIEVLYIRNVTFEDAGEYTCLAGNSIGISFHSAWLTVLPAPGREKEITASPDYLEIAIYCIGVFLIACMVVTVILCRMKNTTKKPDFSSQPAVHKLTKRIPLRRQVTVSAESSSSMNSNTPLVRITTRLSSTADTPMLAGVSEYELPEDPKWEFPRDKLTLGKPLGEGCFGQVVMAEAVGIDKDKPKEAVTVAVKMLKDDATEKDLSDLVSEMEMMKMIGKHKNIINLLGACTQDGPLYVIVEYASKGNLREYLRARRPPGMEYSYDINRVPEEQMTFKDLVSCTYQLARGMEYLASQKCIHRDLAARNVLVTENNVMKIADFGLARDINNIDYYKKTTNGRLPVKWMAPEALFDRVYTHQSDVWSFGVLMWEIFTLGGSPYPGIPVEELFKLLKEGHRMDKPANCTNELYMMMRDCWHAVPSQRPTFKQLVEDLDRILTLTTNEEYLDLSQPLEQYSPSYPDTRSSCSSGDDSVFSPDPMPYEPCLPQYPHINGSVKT

FGFR3, sequence (P22607 23-806): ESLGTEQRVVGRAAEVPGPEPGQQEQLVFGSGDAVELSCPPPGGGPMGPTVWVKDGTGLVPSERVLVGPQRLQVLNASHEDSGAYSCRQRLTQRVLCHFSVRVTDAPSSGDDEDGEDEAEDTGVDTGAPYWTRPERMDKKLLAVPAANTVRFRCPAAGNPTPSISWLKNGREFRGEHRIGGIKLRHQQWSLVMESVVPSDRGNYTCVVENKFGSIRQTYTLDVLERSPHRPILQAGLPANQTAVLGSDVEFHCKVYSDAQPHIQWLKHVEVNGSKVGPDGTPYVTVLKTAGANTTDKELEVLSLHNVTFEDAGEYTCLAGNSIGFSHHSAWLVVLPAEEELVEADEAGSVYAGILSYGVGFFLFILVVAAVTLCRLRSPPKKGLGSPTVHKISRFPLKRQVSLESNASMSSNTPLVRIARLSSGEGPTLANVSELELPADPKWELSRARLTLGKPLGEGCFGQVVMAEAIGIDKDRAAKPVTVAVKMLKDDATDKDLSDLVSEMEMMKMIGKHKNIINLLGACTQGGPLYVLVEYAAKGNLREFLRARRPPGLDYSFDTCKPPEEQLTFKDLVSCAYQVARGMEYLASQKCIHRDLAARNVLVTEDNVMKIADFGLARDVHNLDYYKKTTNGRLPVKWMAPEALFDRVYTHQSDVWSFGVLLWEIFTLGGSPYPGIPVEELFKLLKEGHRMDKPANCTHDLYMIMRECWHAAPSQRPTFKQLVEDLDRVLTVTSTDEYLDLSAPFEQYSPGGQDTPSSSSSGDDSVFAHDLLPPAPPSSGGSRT
FGFR1, sequence (P11362 22-822): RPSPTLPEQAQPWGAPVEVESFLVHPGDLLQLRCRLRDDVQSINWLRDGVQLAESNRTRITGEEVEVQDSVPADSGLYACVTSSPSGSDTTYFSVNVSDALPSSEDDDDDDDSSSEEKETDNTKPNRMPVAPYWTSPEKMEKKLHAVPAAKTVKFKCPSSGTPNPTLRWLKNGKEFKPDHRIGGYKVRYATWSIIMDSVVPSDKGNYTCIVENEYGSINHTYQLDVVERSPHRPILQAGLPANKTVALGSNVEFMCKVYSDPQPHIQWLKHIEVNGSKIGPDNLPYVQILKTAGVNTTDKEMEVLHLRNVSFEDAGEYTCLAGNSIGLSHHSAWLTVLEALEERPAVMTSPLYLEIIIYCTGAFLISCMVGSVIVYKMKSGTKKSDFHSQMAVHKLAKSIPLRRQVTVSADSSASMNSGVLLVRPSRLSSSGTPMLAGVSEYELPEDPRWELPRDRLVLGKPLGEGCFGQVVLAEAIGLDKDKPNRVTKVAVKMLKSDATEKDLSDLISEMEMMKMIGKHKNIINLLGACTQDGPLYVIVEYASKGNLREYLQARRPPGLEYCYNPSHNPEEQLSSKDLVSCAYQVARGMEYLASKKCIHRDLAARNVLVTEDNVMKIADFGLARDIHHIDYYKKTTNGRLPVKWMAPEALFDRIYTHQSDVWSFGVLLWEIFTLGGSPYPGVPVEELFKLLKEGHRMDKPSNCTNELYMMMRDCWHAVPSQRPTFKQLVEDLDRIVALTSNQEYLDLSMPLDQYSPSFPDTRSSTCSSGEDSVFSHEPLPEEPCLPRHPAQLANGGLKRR

- IC50 [1]: 28 nM
- IC50 [2]: 78 nM
- IC50 [3]: 28 nM
Substance: CYY292
